# Data reported in ChEMBL document CHEMBL3885881, “DrugMatrix”.
# Species on record: Rattus norvegicus
# Assay: DrugMatrix - Regimen: Daily Repeat
# Format: toxicity, organism-based, Sprague-Dawley
# Design: regimen Daily Repeat, gender Male, age 6-8 weeks
# Details: in vivo, po, route oral GAVAGE, vehicle 100 % WATER; for BASOPHIL / EOSINOPHIL / ERYTHROCYTE COUNT / HEMATOCRIT / HEMOGLOBIN / LEUKOCYTE COUNT / LYMPHOCYTE / MEAN CORPUSCULAR HEMOGLOBIN / MEAN CORPUSCULAR HEMOGLOBIN CONCENTRATION / MEAN CORPUSCULAR VOLUME / MONOCYTE / NEUTROPHIL / PLATELET COUNT: tissue Blood; for ALANINE AMINOTRANSFERASE / ALBUMIN / ALKALINE PHOSPHATASE / ASPARTATE AMINOTRANSFERASE / BLOOD UREA NITROGEN / CHLORIDE / CHOLESTEROL / CREATINE PHOSPHOKINASE / CREATININE / GLUCOSE / PHOSPHORUS / POTASSIUM / SODIUM / TOTAL BILIRUBIN / TOTAL PROTEIN: tissue Plasma
# [1] = 0 mg/kg, 72 h, dose level Control, time 3 day
# [2] = 0 mg/kg, 120 h, dose level Control, time 5 day
# [3] = 45 mg/kg, 72 h, dose level Low, time 3 day
# [4] = 45 mg/kg, 120 h, dose level Low, time 5 day
smiles,measurement,setting,value
Nc1ccc(S(=O)(=O)Nc2ncccn2)cc1 [SULFADIAZINE],BASOPHIL,[1],0%
same,EOSINOPHIL,[1],0.5%
same,ERYTHROCYTE COUNT,[1],5.8 x10E6/uL
same,HEMATOCRIT,[1],35.07%
same,HEMOGLOBIN,[1],14.12 G/DL
same,LEUKOCYTE COUNT,[1],13.7 x10E3/uL
same,LYMPHOCYTE,[1],82.33%
same,MEAN CORPUSCULAR HEMOGLOBIN,[1],24.38 pg
same,MEAN CORPUSCULAR HEMOGLOBIN CONCENTRATION,[1],40.28 G/DL
same,MEAN CORPUSCULAR VOLUME,[1],60.52 fL
same,MONOCYTE,[1],2.67%
same,NEUTROPHIL,[1],14.5%
same,PLATELET COUNT,[1],911.5 x10E3/uL
same,ALANINE AMINOTRANSFERASE,[1],36.83 u/L
same,ALBUMIN,[1],3.75 G/DL
same,ALKALINE PHOSPHATASE,[1],399.83 u/L
same,ASPARTATE AMINOTRANSFERASE,[1],66 u/L
same,BLOOD UREA NITROGEN,[1],14.67 mg/dL
same,CHLORIDE,[1],101.67 MEQ/L
same,CHOLESTEROL,[1],66.33 mg/dL
same,CREATINE PHOSPHOKINASE,[1],139.5 u/L
same,CREATININE,[1],0.92 mg/dL
same,GLUCOSE,[1],175 mg/dL
same,PHOSPHORUS,[1],11.42 mg/dL
same,POTASSIUM,[1],7.03 MEQ/L
same,SODIUM,[1],148.5 MEQ/L
same,TOTAL BILIRUBIN,[1],1.13 mg/dL
same,TOTAL PROTEIN,[1],6.87 G/DL
same,BASOPHIL,[2],0%
same,EOSINOPHIL,[2],0.2%
same,ERYTHROCYTE COUNT,[2],6.02 x10E6/uL
same,HEMATOCRIT,[2],36.48%
same,HEMOGLOBIN,[2],14.38 G/DL
same,LEUKOCYTE COUNT,[2],12.34 x10E3/uL
same,LYMPHOCYTE,[2],83%
same,MEAN CORPUSCULAR HEMOGLOBIN,[2],23.92 pg
same,MEAN CORPUSCULAR HEMOGLOBIN CONCENTRATION,[2],39.44 G/DL
same,MEAN CORPUSCULAR VOLUME,[2],60.66 fL
same,MONOCYTE,[2],3%
same,NEUTROPHIL,[2],13.8%
same,PLATELET COUNT,[2],1190.6 x10E3/uL
same,ALANINE AMINOTRANSFERASE,[2],43 u/L
same,ALBUMIN,[2],3.73 G/DL
same,ALKALINE PHOSPHATASE,[2],393 u/L
same,ASPARTATE AMINOTRANSFERASE,[2],62.33 u/L
same,BLOOD UREA NITROGEN,[2],16.33 mg/dL
same,CHLORIDE,[2],101.67 MEQ/L
same,CHOLESTEROL,[2],65.5 mg/dL
same,CREATINE PHOSPHOKINASE,[2],130.67 u/L
same,CREATININE,[2],0.58 mg/dL
same,GLUCOSE,[2],180.67 mg/dL
same,PHOSPHORUS,[2],11.28 mg/dL
same,POTASSIUM,[2],7.05 MEQ/L
same,SODIUM,[2],148.17 MEQ/L
same,TOTAL BILIRUBIN,[2],0.72 mg/dL
same,TOTAL PROTEIN,[2],6.83 G/DL
same,BASOPHIL,[3],0%
same,EOSINOPHIL,[3],0%
same,ERYTHROCYTE COUNT,[3],6.15 x10E6/uL
same,HEMATOCRIT,[3],35.77%
same,HEMOGLOBIN,[3],14.2 G/DL
same,LEUKOCYTE COUNT,[3],14.83 x10E3/uL
same,LYMPHOCYTE,[3],84%
same,MEAN CORPUSCULAR HEMOGLOBIN,[3],23.1 pg
same,MEAN CORPUSCULAR HEMOGLOBIN CONCENTRATION,[3],39.67 G/DL
same,MEAN CORPUSCULAR VOLUME,[3],58.17 fL
same,MONOCYTE,[3],2%
same,NEUTROPHIL,[3],14%
same,PLATELET COUNT,[3],1166 x10E3/uL
same,ALANINE AMINOTRANSFERASE,[3],33 u/L
same,ALBUMIN,[3],3.57 G/DL
same,ALKALINE PHOSPHATASE,[3],285 u/L
same,ASPARTATE AMINOTRANSFERASE,[3],56 u/L
same,BLOOD UREA NITROGEN,[3],11.67 mg/dL
same,CHLORIDE,[3],102 MEQ/L
same,CHOLESTEROL,[3],73.33 mg/dL
same,CREATINE PHOSPHOKINASE,[3],134 u/L
same,CREATININE,[3],0.6 mg/dL
same,GLUCOSE,[3],186 mg/dL
same,PHOSPHORUS,[3],11.9 mg/dL
same,POTASSIUM,[3],7 MEQ/L
same,SODIUM,[3],149.67 MEQ/L
same,TOTAL BILIRUBIN,[3],0.3 mg/dL
same,TOTAL PROTEIN,[3],6.33 G/DL
same,BASOPHIL,[4],0%
same,EOSINOPHIL,[4],0.33%
same,ERYTHROCYTE COUNT,[4],6.55 x10E6/uL
same,HEMATOCRIT,[4],40.3%
same,HEMOGLOBIN,[4],15.6 G/DL
same,LEUKOCYTE COUNT,[4],12.63 x10E3/uL
same,LYMPHOCYTE,[4],84%
same,MEAN CORPUSCULAR HEMOGLOBIN,[4],23.9 pg
same,MEAN CORPUSCULAR HEMOGLOBIN CONCENTRATION,[4],38.8 G/DL
same,MEAN CORPUSCULAR VOLUME,[4],61.57 fL
same,MONOCYTE,[4],1%
same,NEUTROPHIL,[4],14.67%
same,PLATELET COUNT,[4],1086.33 x10E3/uL
same,ALANINE AMINOTRANSFERASE,[4],37.67 u/L
same,ALBUMIN,[4],3.9 G/DL
same,ALKALINE PHOSPHATASE,[4],378 u/L
same,ASPARTATE AMINOTRANSFERASE,[4],55.67 u/L
same,BLOOD UREA NITROGEN,[4],12.67 mg/dL
same,CHLORIDE,[4],104 MEQ/L
same,CHOLESTEROL,[4],66.33 mg/dL
same,CREATINE PHOSPHOKINASE,[4],110.67 u/L
same,CREATININE,[4],0.63 mg/dL
same,GLUCOSE,[4],181.67 mg/dL
same,PHOSPHORUS,[4],12.57 mg/dL
same,POTASSIUM,[4],7.23 MEQ/L
same,SODIUM,[4],151.33 MEQ/L
same,TOTAL BILIRUBIN,[4],0.4 mg/dL
same,TOTAL PROTEIN,[4],7.03 G/DL
